Reference: ChEMBL document CHEMBL5696441 (Nat Chem Biol, 2011)
pIC50: −log10 of the molar value.

Tests used:
[1] = biological target: Serine/threonine-protein kinase tousled-like 2 (Homo sapiens) (UniProt Q86UE8); assay: Inhibition of TLK2 (unknown origin) assessed as remaining activity at 1 uM by Kinome scan method relative to control
[2] = biological target: Fibroblast growth factor receptor 2 (Homo sapiens) (UniProt P21802); assay: Inhibition of FGFR2 (unknown origin) assessed as remaining activity at 1 uM by Kinome scan method relative to control
Chain of Fibroblast growth factor receptor 2 (Homo sapiens) (P21802 22-821 limits assumed): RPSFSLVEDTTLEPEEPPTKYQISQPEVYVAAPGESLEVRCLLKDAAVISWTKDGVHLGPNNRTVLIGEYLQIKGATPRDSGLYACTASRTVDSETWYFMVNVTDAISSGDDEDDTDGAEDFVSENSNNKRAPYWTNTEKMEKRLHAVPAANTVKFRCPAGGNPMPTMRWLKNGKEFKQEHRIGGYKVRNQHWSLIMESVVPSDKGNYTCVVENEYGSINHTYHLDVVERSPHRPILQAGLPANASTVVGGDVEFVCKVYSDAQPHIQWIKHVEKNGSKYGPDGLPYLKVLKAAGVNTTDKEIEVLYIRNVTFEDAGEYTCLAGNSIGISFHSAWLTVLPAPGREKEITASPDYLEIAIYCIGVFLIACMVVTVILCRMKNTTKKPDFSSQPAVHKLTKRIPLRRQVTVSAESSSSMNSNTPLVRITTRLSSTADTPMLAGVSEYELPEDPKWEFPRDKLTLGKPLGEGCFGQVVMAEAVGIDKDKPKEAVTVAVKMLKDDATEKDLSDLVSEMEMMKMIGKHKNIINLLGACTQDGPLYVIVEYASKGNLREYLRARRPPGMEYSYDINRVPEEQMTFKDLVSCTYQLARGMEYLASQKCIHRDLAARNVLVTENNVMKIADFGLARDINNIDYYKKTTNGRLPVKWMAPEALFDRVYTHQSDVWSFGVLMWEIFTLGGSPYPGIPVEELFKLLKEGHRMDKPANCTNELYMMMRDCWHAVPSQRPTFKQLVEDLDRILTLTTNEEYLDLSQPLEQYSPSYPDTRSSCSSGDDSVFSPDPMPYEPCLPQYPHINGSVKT

[3] = biological target: BDNF/NT-3 growth factors receptor (Homo sapiens) (UniProt Q16620); assay: Inhibition of TRKB (unknown origin) assessed as remaining activity at 1 uM by Kinome scan method relative to control
Chain of BDNF/NT-3 growth factors receptor (Homo sapiens) (Q16620 32-822 limits assumed): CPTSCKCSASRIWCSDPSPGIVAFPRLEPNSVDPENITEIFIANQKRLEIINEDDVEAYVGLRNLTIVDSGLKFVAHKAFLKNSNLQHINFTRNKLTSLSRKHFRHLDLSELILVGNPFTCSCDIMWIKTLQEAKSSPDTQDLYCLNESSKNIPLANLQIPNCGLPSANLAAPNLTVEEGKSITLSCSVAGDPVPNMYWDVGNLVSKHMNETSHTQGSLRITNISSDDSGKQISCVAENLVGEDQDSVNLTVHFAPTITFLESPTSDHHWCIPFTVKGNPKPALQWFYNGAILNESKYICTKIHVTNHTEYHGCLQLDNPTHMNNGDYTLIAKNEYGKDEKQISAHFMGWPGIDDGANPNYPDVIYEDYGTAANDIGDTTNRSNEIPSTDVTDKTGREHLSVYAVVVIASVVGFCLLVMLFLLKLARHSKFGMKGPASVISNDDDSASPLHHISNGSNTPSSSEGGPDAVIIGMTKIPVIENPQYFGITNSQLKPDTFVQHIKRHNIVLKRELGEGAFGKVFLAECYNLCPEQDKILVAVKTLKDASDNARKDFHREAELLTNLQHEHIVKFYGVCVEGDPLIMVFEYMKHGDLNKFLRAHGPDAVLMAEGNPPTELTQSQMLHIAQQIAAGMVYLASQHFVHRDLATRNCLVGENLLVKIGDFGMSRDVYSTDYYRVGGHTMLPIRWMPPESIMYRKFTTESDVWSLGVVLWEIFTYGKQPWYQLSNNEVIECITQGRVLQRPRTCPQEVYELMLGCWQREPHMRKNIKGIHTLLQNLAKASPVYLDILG

[4] = biological target: Membrane-associated tyrosine- and threonine-specific cdc2-inhibitory kinase (Homo sapiens) (UniProt Q99640); assay: Inhibition of PKMYT1 (unknown origin) assessed as remaining activity at 1 uM by Kinome scan method relative to control
Chain of Membrane-associated tyrosine- and threonine-specific cdc2-inhibitory kinase (Homo sapiens) (Q99640 whole entry): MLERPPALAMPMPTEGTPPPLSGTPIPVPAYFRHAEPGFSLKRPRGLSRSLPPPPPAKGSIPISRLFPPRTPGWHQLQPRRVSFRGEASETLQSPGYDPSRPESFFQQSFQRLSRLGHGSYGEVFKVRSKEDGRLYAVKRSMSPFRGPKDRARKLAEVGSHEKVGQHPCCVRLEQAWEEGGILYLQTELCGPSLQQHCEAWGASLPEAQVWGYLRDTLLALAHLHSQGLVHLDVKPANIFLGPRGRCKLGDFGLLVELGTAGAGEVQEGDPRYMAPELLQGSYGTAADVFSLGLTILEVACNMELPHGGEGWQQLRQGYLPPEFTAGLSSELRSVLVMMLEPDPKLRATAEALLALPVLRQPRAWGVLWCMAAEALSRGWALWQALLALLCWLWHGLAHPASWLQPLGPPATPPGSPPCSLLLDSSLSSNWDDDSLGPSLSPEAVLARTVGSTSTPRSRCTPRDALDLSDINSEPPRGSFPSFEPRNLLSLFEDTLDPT

[5] = biological target: Serine/threonine-protein kinase DCLK1 (Homo sapiens) (UniProt O15075); assay: Inhibition of DCAMKL1 (unknown origin) assessed as remaining activity at 1 uM by Kinome scan method relative to control
[6] = biological target: Phosphorylase b kinase gamma catalytic chain, skeletal muscle/heart isoform (Homo sapiens) (UniProt Q16816); assay: Inhibition of PHKG1 (unknown origin) assessed as remaining activity at 1 uM by Kinome scan method relative to control
Chain of Phosphorylase b kinase gamma catalytic chain, skeletal muscle/heart isoform (Homo sapiens) (Q16816 whole entry, looked up, canonical isoform): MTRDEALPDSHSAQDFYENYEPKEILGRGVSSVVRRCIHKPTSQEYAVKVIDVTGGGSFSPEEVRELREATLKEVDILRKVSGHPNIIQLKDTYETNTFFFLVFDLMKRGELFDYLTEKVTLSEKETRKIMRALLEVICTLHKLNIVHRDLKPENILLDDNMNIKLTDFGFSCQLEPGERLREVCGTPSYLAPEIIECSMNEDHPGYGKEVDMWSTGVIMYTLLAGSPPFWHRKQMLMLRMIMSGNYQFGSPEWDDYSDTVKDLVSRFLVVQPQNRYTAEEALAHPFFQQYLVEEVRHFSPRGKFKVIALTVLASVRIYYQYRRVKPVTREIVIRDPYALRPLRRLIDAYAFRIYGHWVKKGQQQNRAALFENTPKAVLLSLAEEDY

[7] = biological target: Dual specificity mitogen-activated protein kinase kinase 3 (Homo sapiens) (UniProt P46734); assay: Inhibition of MEK3 (unknown origin) assessed as remaining activity at 1 uM by Kinome scan method relative to control
Chain of Dual specificity mitogen-activated protein kinase kinase 3 (Homo sapiens) (P46734 whole entry): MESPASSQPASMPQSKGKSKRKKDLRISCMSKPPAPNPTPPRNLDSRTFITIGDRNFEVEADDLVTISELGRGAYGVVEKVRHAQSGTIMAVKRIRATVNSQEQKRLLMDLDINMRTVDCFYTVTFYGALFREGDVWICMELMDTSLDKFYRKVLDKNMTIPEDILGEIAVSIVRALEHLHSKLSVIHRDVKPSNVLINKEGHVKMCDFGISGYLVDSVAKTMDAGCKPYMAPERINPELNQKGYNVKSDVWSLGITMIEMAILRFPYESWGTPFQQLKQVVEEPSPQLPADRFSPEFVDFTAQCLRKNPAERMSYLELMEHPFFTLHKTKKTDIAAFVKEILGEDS

[8] = biological target: Cyclin-dependent kinase 18 (Homo sapiens) (UniProt Q07002); assay: Inhibition of PCTK3 (unknown origin) assessed as remaining activity at 1 uM by Kinome scan method relative to control
[9] = biological target: Cyclin-dependent kinase 9 (Homo sapiens) (UniProt P50750); assay: Inhibition of CDK9 (unknown origin) assessed as remaining activity at 1 uM by Kinome scan method relative to control
Chain of Cyclin-dependent kinase 9 (Homo sapiens) (P50750 whole entry): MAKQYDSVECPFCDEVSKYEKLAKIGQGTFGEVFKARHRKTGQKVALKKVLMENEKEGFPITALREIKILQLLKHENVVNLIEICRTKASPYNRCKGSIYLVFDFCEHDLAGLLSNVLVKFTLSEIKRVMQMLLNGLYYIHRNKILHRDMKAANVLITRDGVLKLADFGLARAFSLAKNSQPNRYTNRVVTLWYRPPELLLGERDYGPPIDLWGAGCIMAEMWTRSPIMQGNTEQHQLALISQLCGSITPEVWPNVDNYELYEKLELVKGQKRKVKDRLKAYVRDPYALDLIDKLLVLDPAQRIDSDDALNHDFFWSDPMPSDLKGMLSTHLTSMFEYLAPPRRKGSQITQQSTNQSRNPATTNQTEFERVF

[10] = biological target: Insulin receptor-related protein (Homo sapiens) (UniProt P14616); assay: Inhibition of INSRR (unknown origin) assessed as remaining activity at 1 uM by Kinome scan method relative to control
[11] = biological target: TGF-beta receptor type-2 (Homo sapiens) (UniProt P37173); assay: Inhibition of TGFBR2 (unknown origin) assessed as remaining activity at 1 uM by Kinome scan method relative to control
[12] = biological target: BMP-2-inducible protein kinase (Homo sapiens) (UniProt Q9NSY1); assay: Inhibition of BIKE (unknown origin) assessed as remaining activity at 1 uM by Kinome scan method relative to control
[13] = biological target: Serine/threonine-protein kinase pim-2 (Homo sapiens) (UniProt Q9P1W9); assay: Inhibition of PIM2 (unknown origin) assessed as remaining activity at 1 uM by Kinome scan method relative to control
Chain of Serine/threonine-protein kinase pim-2 (Homo sapiens) (Q9P1W9 whole entry, looked up): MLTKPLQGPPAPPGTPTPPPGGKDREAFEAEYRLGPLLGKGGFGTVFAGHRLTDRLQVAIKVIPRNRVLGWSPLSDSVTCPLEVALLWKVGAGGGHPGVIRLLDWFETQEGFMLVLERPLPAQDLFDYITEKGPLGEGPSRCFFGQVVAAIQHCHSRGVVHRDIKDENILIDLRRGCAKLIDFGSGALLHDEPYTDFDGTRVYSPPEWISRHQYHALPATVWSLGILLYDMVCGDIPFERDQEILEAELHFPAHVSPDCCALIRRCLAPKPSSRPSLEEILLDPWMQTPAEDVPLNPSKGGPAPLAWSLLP

[14] = biological target: Serine/threonine-protein kinase 33 (Homo sapiens) (UniProt Q9BYT3); assay: Inhibition of STK33 (unknown origin) assessed as remaining activity at 1 uM by Kinome scan method relative to control
[15] = biological target: Serine/threonine-protein kinase N2 (Homo sapiens) (UniProt Q16513); assay: Inhibition of PKN2 (unknown origin) assessed as remaining activity at 1 uM by Kinome scan method relative to control
Chain of Serine/threonine-protein kinase N2 (Homo sapiens) (Q16513 whole entry, looked up): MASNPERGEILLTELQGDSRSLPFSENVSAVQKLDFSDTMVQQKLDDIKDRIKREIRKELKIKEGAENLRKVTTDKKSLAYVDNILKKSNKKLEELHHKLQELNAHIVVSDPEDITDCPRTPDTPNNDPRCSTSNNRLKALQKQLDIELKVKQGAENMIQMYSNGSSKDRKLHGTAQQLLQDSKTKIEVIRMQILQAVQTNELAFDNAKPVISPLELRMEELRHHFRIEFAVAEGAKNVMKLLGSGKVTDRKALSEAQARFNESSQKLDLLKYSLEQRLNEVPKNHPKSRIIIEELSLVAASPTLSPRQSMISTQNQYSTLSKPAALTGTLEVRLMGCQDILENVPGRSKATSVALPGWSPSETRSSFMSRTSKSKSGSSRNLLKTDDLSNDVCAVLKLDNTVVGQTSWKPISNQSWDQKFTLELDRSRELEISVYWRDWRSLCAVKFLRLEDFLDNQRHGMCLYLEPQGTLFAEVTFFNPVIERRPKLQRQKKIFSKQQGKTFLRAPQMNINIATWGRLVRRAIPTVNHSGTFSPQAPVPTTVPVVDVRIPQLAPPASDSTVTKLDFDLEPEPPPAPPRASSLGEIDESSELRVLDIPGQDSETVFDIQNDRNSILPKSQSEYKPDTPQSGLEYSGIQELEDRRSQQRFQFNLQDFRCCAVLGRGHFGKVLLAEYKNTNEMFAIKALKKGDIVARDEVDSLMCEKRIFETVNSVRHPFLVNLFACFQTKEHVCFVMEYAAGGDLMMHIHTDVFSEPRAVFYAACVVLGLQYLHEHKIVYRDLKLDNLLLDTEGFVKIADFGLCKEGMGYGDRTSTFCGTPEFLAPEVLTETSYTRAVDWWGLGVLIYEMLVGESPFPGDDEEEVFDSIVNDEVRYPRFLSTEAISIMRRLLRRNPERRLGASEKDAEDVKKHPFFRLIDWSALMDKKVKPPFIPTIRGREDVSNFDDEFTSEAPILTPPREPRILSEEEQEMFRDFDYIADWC

[16] = biological target: Tyrosine-protein kinase Blk (Homo sapiens) (UniProt P51451); assay: Inhibition of human BLK assessed as residual activity at 1 uM using polyEY as substrate in presence of 33P-ATP by ProQinase assay relative to control
[17] = biological target: Glycogen synthase kinase-3 alpha (Homo sapiens) (UniProt P49840); assay: Inhibition of human GSK3alpha assessed as residual activity at 1 uM using SUPT5 754-837 as substrate in presence of 33P-ATP by ProQinase assay relative to control
[18] = biological target: Mitogen-activated protein kinase kinase kinase 14 (Homo sapiens) (UniProt Q99558); assay: Inhibition of human NIK assessed as residual activity at 1 uM using RBER-CHKtide as substrate in presence of 33P-ATP by ProQinase assay relative to control
[19] = biological target: Mitogen-activated protein kinase 13 (Homo sapiens) (UniProt O15264); assay: Inhibition of human p38delta assessed as residual activity at 1 uM using RBER-CHKtide as substrate in presence of 33P-ATP by ProQinase assay relative to control
[20] = test system: Fibroblast growth factor receptor 1 (Homo sapiens), P11362 [V561M]; assay: Inhibition of human FGFR1 V561M mutant assessed as residual activity at 1 uM using Poly(Ala,Glu,Lys,Tyr)6:2:5:1 as substrate in presence of 33P-ATP by ProQinase assay relative to control
[21] = Anti-inflammatory activity against human derived medium respond PBMC cells assessed as inhibition in stimulated IL-8 cytokine release incubated for 2 hrs in the presence of LPS/SEB/aCD28 by Luminex based sandwich immunoassay; type: functional, cell-based
[22] = test system: Hepatocyte growth factor receptor (Homo sapiens), P08581 [Y1230H]; assay: Inhibition of human MET Y1230H mutant assessed as residual activity at 1 uM using poly(Ala,Glu,Lys,Tyr)6:2:5:1 as substrate in presence of 33P-ATP by ProQinase assay relative to control
[23] = biological target: Serine/threonine-protein kinase PAK 6 (Homo sapiens) (UniProt Q9NQU5); assay: Inhibition of PAK6 (unknown origin) assessed as remaining activity at 1 uM by Kinome scan method relative to control
[24] = biological target: Tyrosine-protein kinase JAK1 (Homo sapiens) (UniProt P23458); assay: Inhibition of JAK1 JH2 domain (unknown origin) assessed as remaining activity at 1 uM by Kinome scan method relative to control
[25] = biological target: Serine/threonine-protein kinase 4 (Homo sapiens) (UniProt Q13043); assay: Inhibition of human MST1 assessed as residual activity at 1 uM using RB-CTF as substrate in presence of 33P-ATP by ProQinase assay relative to control
Chain of Serine/threonine-protein kinase 4 (Homo sapiens) (Q13043 whole entry): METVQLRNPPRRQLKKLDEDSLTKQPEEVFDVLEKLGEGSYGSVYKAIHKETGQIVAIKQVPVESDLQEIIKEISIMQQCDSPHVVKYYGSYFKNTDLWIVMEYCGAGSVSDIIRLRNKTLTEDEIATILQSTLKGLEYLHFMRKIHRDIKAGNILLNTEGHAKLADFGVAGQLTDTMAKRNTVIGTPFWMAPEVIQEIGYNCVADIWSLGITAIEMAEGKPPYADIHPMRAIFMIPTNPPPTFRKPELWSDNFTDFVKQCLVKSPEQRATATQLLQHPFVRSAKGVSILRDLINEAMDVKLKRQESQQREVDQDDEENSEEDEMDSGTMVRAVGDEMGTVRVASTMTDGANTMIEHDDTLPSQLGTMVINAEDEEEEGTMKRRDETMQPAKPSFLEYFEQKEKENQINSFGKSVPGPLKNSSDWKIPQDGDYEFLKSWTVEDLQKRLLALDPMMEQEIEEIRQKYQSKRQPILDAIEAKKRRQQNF

[26] = biological target: Serine/threonine-protein kinase 4 (Homo sapiens) (UniProt Q13043); assay: Inhibition of MST1 (unknown origin) assessed as remaining activity at 1 uM by Kinome scan method relative to control
[27] = biological target: Calcium/calmodulin-dependent protein kinase type II subunit delta (Homo sapiens) (UniProt Q13557); assay: Inhibition of human CAMK2D assessed as residual activity at 1 uM using RBER-CHKtide as substrate in presence of 33P-ATP by ProQinase assay relative to control
[28] = biological target: Serine/threonine-protein kinase B-raf (Homo sapiens) (UniProt P15056); assay: Inhibition of human BRAF assessed as residual activity at 1 uM using MEK1-K97M as substrate in presence of 33P-ATP by ProQinase assay relative to control
[29] = test system: Platelet-derived growth factor receptor alpha (Homo sapiens), P16234 [D842V]; assay: Inhibition of human PDGFRalpha D842V mutant assessed as residual activity at 1 uM using Poly(Ala,Glu,Lys,Tyr)6:2:5:1 as substrate in presence of 33P-ATP by ProQinase assay relative to control

SMILES	Activity [1]	Activity [2]	Activity [3]	Activity [4]	Activity [5]	Activity [6]	Activity [7]	Activity [8]	Activity [9]	Activity [10]	Activity [11]	Activity [12]	Activity [13]	Activity [14]	Activity [15]	other results
Nc1ccccc1Nc1ccc2c(c1)CCc1ccccc1C2=O	85%	91%	85%	64%	92%	92%	97%	94%	93%	88%	93%	50%	98%	82%	89%	–
O=C1c2ccc(Nc3ccc(F)cc3F)cc2CCc2ccc(OC[C@H](O)CO)cc21 [Skepinone-L]	82%	98%	100%	85%	97%	97%	95%	78%	100%	100%	100%	37%	100%	100%	84%	Activity [16]: 107%; Activity [17]: 93%; Activity [18]: 96%; Activity [19]: 80%; Activity [20]: 89%; pIC50 [21]: 7.22; Activity [22]: 102%; Activity [23]: 99%; Activity [24]: 86%; Activity [25]: 71%; Activity [26]: 100%; Activity [27]: 43%; Activity [28]: 112%; Activity [29]: 97%
